{"source": "patent US7091038B2", "about": "“Ecdysone receptor-based inducible gene expression system” (RheoGene, Inc., priority 2000, dated 2006)", "tested_on": "CfEcRDEF:MmRXRDEF", "assay": "CfEcR-based yeast two-hybrid assay, LacZ reporter pSH118", "type": "cell-based, Choristoneura fumiferana; Mus musculus", "excerpt": "This construct results in a LexA:CfEcRDEF fusion that is expressed under the GAL1 promoter.\nThe D, E, and F domains from mouse (Mus musculus) RXR α (“MmRXRDEF”; SEQ ID NO: 22) were fused to a B42 transactivation domain (“B42AD”; SEQ ID NO: 53) and placed under the control of a GAL1 promoter (SEQ ID NO: 73) in pB42AD (CLONTECH). This construct results in a B42AD:MmRXR-DEF fusion that is expressed under the GAL 1 promoter.\nA reporter plasmid comprising a β-galactosidase gene (LacZ; SEQ ID NO: 74) under the control of an 8XLexA operon response element (“8XlexAop”; SEQ ID NO: 75) operably linked to a minimal TATAA region from the GAL1 promoter (p8op-lacZ from CLONTECH) was used to monitor inducible gene expression.\nSaccharomyces cerevisiae yeast cells (EGY48; CLONTECH) were used in these experiments. Cells were maintained in liquid culture media with the appropriate drop out amino acids. Standard methods for culture and maintenance of the cells were followed. […]\nDNA constructs pSH118, CfEcRDEF, and MmRXRA/BCDEF, MmRXRDEF, or […] were transfected into yeast cells. […] A colony from each group of transformants was grown in the liquid culture in the presence of 0, 0.04, 0.2, 1, 5 and 25 μM GS™-E. The reporter activity was measured as described above 4 hours after adding ligand. Total RLUs were calculated and the numbers on the bars of FIG. 16 show maximum fold induction observed for that group (see FIGS. 16 and 17).\nThe best performing transformed yeast strain from the analysis above comprising CfEcRDEF:MmRXRDEF was used to determine the induction activity of three steroid ligands (20E, PonA, MurA) and four non-steroid ligands (GS™-E, RH2485, RH5992, RH5849) in this yeast-based format. The yeast cells were cultured in the presence of 0, 0.l, 1, 10, 50 and 100 μM ligands for four hours and the reporter activity was measured as described above. Total RLUs were calculated and the numbers on the top of the bars of FIG. 18 show the maximum fold induction for that group (see FIGS. 18 and 19)."}
{"smiles": "CCc1c(OC)cccc1C(=O)NN(C(=O)c1cc(C)cc(C)c1)C(C)(C)C", "note": "[N-(2-ethyl-3-methoxybenzoyl)-N′-(3,5-dimethylbenzoyl)-N′-t-butylhydrazine]", "values": [{"measurement": "Fold induction", "setting": "yeast cells, CfEcRDEF/MmRXRDEF, 0–25 μM, 4 hours after adding ligand", "result": "approximately 1800 fold"}, {"measurement": "Induction of gene expression (relative performance of ligands)", "setting": "yeast strain comprising CfEcRDEF:MmRXRDEF, 0–100 μM ligand for four hours, FIGS. 18 and 19", "result": "induce gene expression better than any other ligand tested"}]}
